Key:
Assay type in all cases: physicochemical
[1] = Photopolymerization efficiency, gravimetric determination of the cured polymer mass; conditions: photopolymerization efficiency test per application example 5 with antioxidant
Procedure: The photopolymerization efficiency was examined by gravimetric determination of the cured polymer mass: Solutions containing prepolymer prepared according to examples 5-7, 10 or 11 (15% w/w) and photoinitiator (0.1% w/w) were prepared in deionized water. 500 mg of the premixed solutions were loaded into a 2 mL polystyrene cuvette and irradiated for 60 s with a laser (X=405 nm, p=10 mW) from the side. The solid hydrogels were removed, wiped to remove residual liquid, and weighed. The ratio of solid, cure material to liquid, uncured material was calculated and used as a measure for the photopolymerization efficiency. The setup used is depicted in FIG. 2: 301 represents the polystyrene cuvette, 302 the liquid prepolymer composition, 303 the solidified hydrogel and 304 the laser beam.
The photopolymerization efficiency of the prepolymers PEG-DMA (prepared according to example 7), linker-containing PEG-dimethacrylates (example 5-7), PEG-DAAm (example 10), linker-containing PEG-diacrylamides (example 11) and 1OR5-Dimethacrylate (example 12) was compared according to application example 5: […]

[2] = Antioxidant testing: accelerated aging of antioxidant-doped hydrogels in D2O, decomposition markers by NMR; conditions: antioxidant added to prepolymer formulation (BHT with 1% DMSO)
Source text: The influence of different antioxidants on hydrogel stability was studied by doping prepolymer formulations with specified antioxidants prior to photopolymerization as described in application example 1, followed by accelerated aging experiments in heavy water (D20).
Detection of decomposition was observed by NMR spectroscopy with the formation of decomposition markers, such as formic acid, in the liquid. This was quantified with the addition of an internal standard.

[3] = Retainment of antioxidants in hydrogel samples, leaching with weekly exchange of heavy water
Procedure: The retainment properties of antioxidants were tested by preparing and aging antioxidant-doped samples according to application example 3. The heavy water the hydrogels samples were aged in was exchanged weekly, followed by testing of the heavy water. Detection of decomposition was observed by NMR spectroscopy with the formation of decomposition markers, such as formic acid, in the liquid. This was quantified with the addition of an internal standard.
Retainment of BHT and sodium fenozan was studied according to […].

SMILES | Reduction of polymerized mass in presence of antioxidant [1] | Decomposition (decomposition marker such as formic acid) of hydrogel with antioxidant [2] | Retainment of antioxidant in hydrogel (decomposition markers and antioxidant in leached solvent) ([3]; leaching experiments over three weeks) | Decomposition markers in leached solvent ([3]; after 3 weeks of leaching) [mM]
Cc1cc(C(C)(C)C)c(O)c(C(C)(C)C)c1 [BHT] | no reduction of polymerized masses was observed | no decomposition was observed | lack of decomposition markers and antioxidant in the leached solvent | 
CC(C)(C)c1cc(CCC(=O)[O-])cc(C(C)(C)C)c1O.[Na+] [sodium fenozan] | no reduction of polymerized masses was observed | no decomposition was observed |  | 1.4

— US12600808B2, “Crosslinkable prepolymers for chemically stable polymer gels” (priority 2020, dated 2026)
